IC50 data for 6 substances are collected here from patent publication US20250207131A1, “MODIFIED RNA AGENTS WITH REDUCED OFF-TARGET EFFECT” (Alnylam Pharmaceuticals, Inc., priority 2018, published 2025).

For the test, the system named is luciferase reporter plasmids (psiCHECK2, Renilla luciferase fused to target sequence). Description: Off-target Dual-Glo luciferase reporter assay in COS-7 cells. The format is cell-based. The method, then: Dual-Glo® Luciferase assay: Cos7 cells (ATCC, Manassas, VA) were grown to near confluence at 37° C. in an atmosphere of 5% CO2 in DMEM (ATCC) supplemented with 10% FBS, before being released from the plate by trypsinization. siRNA and psiCHCECK2 plasmid transfection was carried out by adding 5 μL of siRNA duplexes and 5 μL of psiCHECK2 plasmid per well along with 5 μL of Opti-MEM plus 0.1 μL of Lipofectamine 2000 per well (Invitrogen, Carlsbad CA. cat #13778-150) and then incubated at room temperature for 15 minutes. The mixture was then added to the cells which were re-suspended in 35 ul of fresh complete media. The transfected cells were incubated at 37° C. in an atmosphere of 5% CO2.
48 hours after the siRNAs and psiCHECK2 plasmid were transfected; Firefly (transfection control) and Renilla (fused to target sequence) luciferase were measured. First, media was removed from cells. Then Firefly luciferase activity was measured by adding 20 μL of Dual-Glo® Luciferase Reagent equal to the culture medium volume to each well and mix. The mixture was incubated at room temperature for 30 minutes before luminescence (500 nm) was measured on a Spectramax (Molecular Devices) to detect the Firefly luciferase signal. Renilla luciferase activity was measured by adding 20 μL of room temperature of Dual-Glo® Stop & Glo® Reagent was added to each well and the plates were incubated for 10-15 minutes before luminescence was again measured to determine the Renilla luciferase signal. The Dual-Glo® Stop & Glo® Reagent, quenches the firefly luciferase signal and sustained luminescence for the Renilla luciferase reaction. siRNA activity was determined by normalizing the Renilla signal to the Firefly (control) signal within each well. The magnitude of siRNA activity was then assessed relative to cells that were transfected with the same vector but were not treated with siRNA or were treated with a non-targeting siRNA. All transfections were done at n=2 or greater.
Background: A reporter such as luciferase makes a cellular process visible.

Where [1] appears, read: TTR-3, antisense strand modified at position 5, luciferase reporter, COS-7 cells.
Setting [2] is: TTR-3, antisense strand modified at position 7, luciferase reporter, COS-7 cells.
[3] abbreviates: TTR-4, modification at antisense position 7, luciferase reporter plasmids co-transfected with siRNAs into COS-7 cells.

For orientation: IC50 means the concentration that gives 50% inhibition. Lower therefore signals greater potency in that assay. Take 5′-(S)-Me-UNA [Mod 5 (S)]: the IC50 was greater than 50 nM under setting [1], greater than 50 nM under setting [2] and 8.73 nM under setting [3].
Turning to 2′-(R)-Me-UNA [Mod 7 (R)], the IC50 runs as follows: under setting [1], greater than 50 nM; under setting [2], greater than 50 nM; under setting [3], 1.61 nM.
3′-(S)-Me-UNA [Mod 6 (S)]: the IC50 is, setting by setting: under setting [1], greater than 50 nM; under setting [2], greater than 50 nM; under setting [3], 3.65 nM.
For 5′-(R)-Me-UNA [Mod 5 (R)], the IC50 reads like this: under setting [1], greater than 50 nM; under setting [2], greater than 50 nM; under setting [3], 8.13 nM.
As to 3′-(R)-Me-UNA [Mod 6 (R)], the IC50 by setting is: under setting [1], greater than 50 nM; under setting [2], greater than 50 nM; under setting [3], 2.86 nM.
Consider 2′-(S)-Me-UNA [Mod 7 (S)], for which the half-inhibitory concentration (IC50) reads like this: under setting [1], greater than 50 nM; under setting [2], greater than 50 nM; under setting [3], 1.35 nM.
